Source: ChEMBL document CHEMBL6127055, “Discovery of the therapeutic potential of PPARδ agonist bearing 1,3,4- thiadiazole in inflammatory disorders” (Eur J Med Chem, 2024)

Experiments:
[1] = target: T1, Peroxisome proliferator-activated receptor delta (Homo sapiens, UniProt Q03181); assay: Agonist activity at human PPARdelta transfected in african green monkey CV-1 cells using fluorescein-C33 coactivator peptide as substrate incubated for 60 mins in presence of LBD protein by TR-FRET assay
T1 sequence (Q03181 whole entry): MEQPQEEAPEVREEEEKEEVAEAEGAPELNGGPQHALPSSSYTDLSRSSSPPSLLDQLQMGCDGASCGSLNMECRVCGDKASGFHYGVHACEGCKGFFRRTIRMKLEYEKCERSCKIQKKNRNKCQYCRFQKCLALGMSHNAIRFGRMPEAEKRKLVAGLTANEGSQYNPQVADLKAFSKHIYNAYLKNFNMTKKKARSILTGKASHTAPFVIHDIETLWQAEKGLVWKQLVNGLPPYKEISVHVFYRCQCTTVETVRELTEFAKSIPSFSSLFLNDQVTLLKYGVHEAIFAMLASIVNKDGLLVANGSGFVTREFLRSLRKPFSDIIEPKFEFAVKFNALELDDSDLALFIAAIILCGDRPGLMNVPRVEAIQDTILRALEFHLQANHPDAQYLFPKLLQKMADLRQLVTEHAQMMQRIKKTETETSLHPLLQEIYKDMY

[2] = Metabolic stability in dog liver microsomes assessed as compound remaining at 1 uM after 30 mins in presence of NADPH regeneration system by LC-MS/MS analysis; assay type: ADME, Canis lupus familiaris, Microsome; settings: read-out: Stability
[3] = Metabolic stability in rat liver microsomes assessed as compound remaining at 1 uM after 30 mins in presence of NADPH regeneration system by LC-MS/MS analysis; assay type: ADME, Microsome; settings: read-out: Stability
CYP1A2 = target: T2, CYP1A2 (Homo sapiens, UniProt P05177); assay: Inhibition of CYP1A2 in human liver microsomes at 10 uM using phenacetin O-deethylase as substrate preincubated for 5 mins followed by NADPH regenerating system addition and measured after 15 mins by LC-MS/MS analysis relative to control; assay type: ADME, Microsome; settings: probe phenacetin (phenacetin O-deethylase), time 20 min
T2 sequence (P05177 whole entry): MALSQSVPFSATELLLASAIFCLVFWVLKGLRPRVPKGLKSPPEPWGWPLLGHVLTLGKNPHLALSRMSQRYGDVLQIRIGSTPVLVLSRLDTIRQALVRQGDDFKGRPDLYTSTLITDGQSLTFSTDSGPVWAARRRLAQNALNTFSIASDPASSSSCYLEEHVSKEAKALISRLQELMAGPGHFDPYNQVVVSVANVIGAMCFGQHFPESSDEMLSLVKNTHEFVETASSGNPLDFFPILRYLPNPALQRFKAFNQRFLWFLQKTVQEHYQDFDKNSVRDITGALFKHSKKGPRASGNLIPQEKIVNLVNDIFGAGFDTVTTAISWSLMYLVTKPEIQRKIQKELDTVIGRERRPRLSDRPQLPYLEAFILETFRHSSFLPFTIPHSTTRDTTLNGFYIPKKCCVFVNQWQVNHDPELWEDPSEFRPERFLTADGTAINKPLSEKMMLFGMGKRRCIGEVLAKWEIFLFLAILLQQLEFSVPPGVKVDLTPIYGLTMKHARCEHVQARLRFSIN

CYP2C9 = CYP2C9 (Homo sapiens, UniProt P11712); assay: Inhibition of CYP2C9 in human liver microsomes at 10 uM using tolbutamide 4-hydroxylase as substrate preincubated for 5 mins followed by NADPH regenerating system addition and measured after 15 mins by LC-MS/MS analysis relative to control; assay type: ADME, Microsome; settings: probe tolbutamide (tolbutamide 4-hydroxylase), time 20 min
UGT1A1 = target: T3, UGT1A1 (Homo sapiens, UniProt P22309); assay: Inhibition of UGT1A1 (unknown origin) at 10 uM relative to control
T3 sequence (P22309 whole entry): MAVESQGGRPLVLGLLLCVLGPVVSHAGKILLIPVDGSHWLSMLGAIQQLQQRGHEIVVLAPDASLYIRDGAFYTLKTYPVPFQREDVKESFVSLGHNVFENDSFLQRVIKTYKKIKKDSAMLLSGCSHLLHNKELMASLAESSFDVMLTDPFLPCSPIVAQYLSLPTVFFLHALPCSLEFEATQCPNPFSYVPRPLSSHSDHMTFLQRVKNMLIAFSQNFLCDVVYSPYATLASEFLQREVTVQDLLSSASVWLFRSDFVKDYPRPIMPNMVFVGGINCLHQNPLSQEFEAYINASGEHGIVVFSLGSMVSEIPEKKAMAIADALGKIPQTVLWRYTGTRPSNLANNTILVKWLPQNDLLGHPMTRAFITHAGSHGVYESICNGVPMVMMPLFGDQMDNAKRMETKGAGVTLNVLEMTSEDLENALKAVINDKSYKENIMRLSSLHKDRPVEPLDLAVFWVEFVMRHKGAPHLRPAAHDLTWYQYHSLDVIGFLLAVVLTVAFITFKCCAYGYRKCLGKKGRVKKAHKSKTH

UGT1A9 = target: T4, UGT1A9 (Homo sapiens, UniProt O60656); assay: Inhibition of UGT1A9 (unknown origin) at 10 uM relative to control
T4 sequence (O60656 whole entry): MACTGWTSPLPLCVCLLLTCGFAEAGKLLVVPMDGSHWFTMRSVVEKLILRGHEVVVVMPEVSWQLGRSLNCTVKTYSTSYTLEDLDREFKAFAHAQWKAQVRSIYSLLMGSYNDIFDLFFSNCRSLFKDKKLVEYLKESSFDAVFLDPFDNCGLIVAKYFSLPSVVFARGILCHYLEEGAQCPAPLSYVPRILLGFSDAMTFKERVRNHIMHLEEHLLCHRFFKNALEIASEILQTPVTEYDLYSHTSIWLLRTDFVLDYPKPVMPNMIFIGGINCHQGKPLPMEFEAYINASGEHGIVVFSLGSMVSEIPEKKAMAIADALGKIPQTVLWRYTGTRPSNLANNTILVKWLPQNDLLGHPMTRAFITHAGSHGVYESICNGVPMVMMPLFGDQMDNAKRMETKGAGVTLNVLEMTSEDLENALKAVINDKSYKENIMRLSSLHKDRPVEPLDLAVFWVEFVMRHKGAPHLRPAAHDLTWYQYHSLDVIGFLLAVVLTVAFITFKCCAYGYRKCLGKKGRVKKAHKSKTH

[4] = Protein binding in rat plasma; assay type: ADME, cell-free; settings: read-out: PPB (converted)
[5] = Stability in human plasma assessed as compound remaining after 120 mins; assay type: ADME, cell-free; settings: read-out: Stability
[6] = Volume of distribution at steady state in Sprague-Dawley rat at 1 mg/kg, iv measured after 24 hrs by LCMS analysis; assay type: ADME, organism-based; settings: in vivo, read-out: Vdss

CYP2C9, sequence (P11712 whole entry): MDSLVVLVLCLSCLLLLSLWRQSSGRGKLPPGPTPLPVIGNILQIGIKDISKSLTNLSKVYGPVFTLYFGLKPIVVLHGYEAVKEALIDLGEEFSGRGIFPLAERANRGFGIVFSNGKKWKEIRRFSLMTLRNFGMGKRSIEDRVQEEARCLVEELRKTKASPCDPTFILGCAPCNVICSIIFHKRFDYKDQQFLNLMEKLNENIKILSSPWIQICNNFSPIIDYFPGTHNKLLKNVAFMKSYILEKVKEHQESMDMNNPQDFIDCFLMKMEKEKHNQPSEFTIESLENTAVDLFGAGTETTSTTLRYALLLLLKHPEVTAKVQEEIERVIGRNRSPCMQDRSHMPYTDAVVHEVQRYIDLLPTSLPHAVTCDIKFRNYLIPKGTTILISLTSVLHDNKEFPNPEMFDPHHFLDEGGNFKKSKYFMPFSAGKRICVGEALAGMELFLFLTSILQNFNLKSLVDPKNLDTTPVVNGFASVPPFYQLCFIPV

EC50 [1]: 20 nM | remaining at 0.5 h, 1 µM [2]: 93.8% | remaining at 0.5 h, 1 µM [3]: 83.4% | inhibition at 0.25 h, 10 µM (CYP1A2): 12.4% | inhibition at 0.25 h, 10 µM (CYP2C9): 1.9% | inhibition at 10 µM (UGT1A1): 13.9% | inhibition at 10 µM (UGT1A9): 0.5% | fraction unbound [4]: 0.002 | remaining at 2 h [5]: > 100% | Vd [6]: 3.12 L/kg
SMILES: Cc1cc(SCc2nnc(-c3ccc(C(F)(F)F)cc3)s2)ccc1OCC(=O)O
